Article PMC6987128, “Target protein-oriented isolation of Hes1 dimer inhibitors using protein based methods” (Scientific Reports, 2020)

System: C17.2 mouse neural stem cells
Experiment: Neural stem cell differentiation assay (Tuj1/GFAP immunofluorescence staining)
Assay type: cell-based
Settings: C17.2 cells, 6 days; for increase of neurons compared to control: vs DMSO control
Text: We recently developed another protein-based screening method, the target protein oriented natural products isolation method (TPO-NAPI) using protein beads (Fig. 2B). Agalloside, inohanamine, α-mangostine, BE-14106, isomicromonolactam, staurosporin and linarin were isolated as Hes1 binding compounds using the TPO-NAPI method[15],[17]. Rat Hes1 (1–95) containing basic and helix-loop-helix domains was immobilized because the helix-loop-helix domain is known to be important for Hes1-Hes1 interaction; therefore, utilizing this domain in the beads method would likely be effective for screening Hes1 dimer inhibitors. GST-Hes1 immobilized beads were prepared by mixing freshly prepared GST-Hes1 protein with glutathione Sepharose 4B beads. GST-only beads were prepared as a control. After incubating the beads with plant MeOH extracts at 4 °C for 2 h, bound compounds were eluted by adding EtOH and heating at 100 °C for 3 min, then the eluted compounds were analyzed by HPLC. […] The MeOH extract (64.6 g) of Terminalia chebula bark was partitioned with hexane, EtOAc and BuOH to obtain hexane (1.5 g), EtOAc (3.6 g), BuOH (42.6 g), and aqueous (20.5 g) soluble fractions. The EtOAc fraction contained the target peak and was subjected to silica gel column chromatography to give eight fractions (1A-H). Fraction 1D contained the target peak and was separated by ODS column chromatography and reverse-phase HPLC to give compound 11 (0.4 mg). Compound 11 was identified as 4-O-(4″-O-galloyl-α-L-rhamnopyranosyl)ellagic acid by comparison of its NMR data with reported spectral data[37]. […] This is the strongest Hes1 dimer inhibitor reported to date. The ability of 11 to accelerate the differentiation of C17.2 mouse neural stem cells was evaluated (Fig. 5). C17.2 cells (2 × 10^5 cells/mL) were seeded in a poly-L-lysine-coated 24 well plates and incubated for 24 h, then the cells were treated with DMSO (control), 100 μM valproic acid (VPA), 5 μM retinoic acid (RA) (positive controls) or 11 (1 or 5 μM) for 6 days. A confocal microscope was used to obtain images of differentiated neural cells after immunostaining class III β-tubulin (Tuj1) in neurons, and glial fibrillary acidic protein (GFAP) in astrocytes and nuclei (TO-PRO-3). […] In contrast, the control dish containing cells treated with DMSO contained small number of neurons.
C17.2 cells were cultured in proliferation medium [DMEM (DS Pharma Biomedical Co., Ltd. Osaka, Japan) supplemented with 10% fetal bovine serum (Biowest, Nuaillé, France), 5% horse serum (Gibco, Life Technologies, Tokyo, Japan)]. Neural differentiation of C17.2 cells was initiated by transferring the cells to differentiation medium [Neurobasal Medium (Gibco) supplemented with 2% B-27 without vitamin A (Gibco), 1% antibiotic-antimycotic (Gibco)]. All cultures were maintained in a humidified incubator at 37 °C in 5% CO2/95% air.
C17.2 cells were dissociated using the proliferation medium 2 × 10^5 cells/mL on cover glass (MATSUNAMI GLASS) coated with poly-L-lysine and fibronectin/laminin. After incubation for 24 h, cells were washed with D-MEM and treated with individual compounds in differentiation medium for 6 days.
C17.2 cells were fixed with 4% paraformaldehyde in PBS for 20 min at room temperature (r.t.) and washed with 1% BSA in PBS three times. After blocking with 10% BSA in 0.3% Triton X-100 in PBS for 45 min at r.t., fixed cells were incubated with primary antibodies (anti-βIII-Tubulin; Neuronal Class III, Mouse-Mono, 1:400, R&D Systems^TM; anti-GFAP, 1:400, VERITAS) for 12 h at 4 °C. After washing three times with 1% BSA in PBS (500 μL/well), cells were incubated with secondary antibodies (Alexa Fluor® 488 goat anti-mouse IgG (H + L), 1:400, Life Technologies; Alexa Fluor® 555 goat ant-rabbit IgG (H + L), 1:200, Life Technologies) for 1 hr at r.t. in the dark. […]

CC1OC(Oc2cc3c(=O)oc4c(O)c(O)cc5c(=O)oc(c2O)c3c45)C(O)C(O)C1OC(=O)c1cc(O)c(O)c(O)c1 [Compound 11, 4-O-(4″-O-galloyl-α-L-rhamnopyranosyl)ellagic acid]
differentiated neurons (1 µM): 33.6% | increase of neurons compared to control (1 µM): 67% | differentiated neurons (5 µM): 45.4% | increase of neurons compared to control (5 µM): 125%
